In US5409933A, “Quinoline derivatives and processes for preparing the same” (priority 1993, dated 1995):
Structures can show the parent of a compound that is named as a salt. Where two headings read alike, the source gives them in different places.

Assays:
Test in all cases: In Vitro Anti-Bacterial Activity Test (MIC, agar dilution)
Format in all cases: cell-based
[1] = test system: Enterobacter cloacae 1321E; conditions: Enterobacter cloacae 1321E; Muller-Hinton agar, 37° C., 18 hours; read-out: MIC
Procedure: (§1) The above in vitro antibacterial activity test was carried out in accordance with the agar culture medium dilution method (Hoechst 345) by using Muller-Hinton agar medium to determine the minimum inhibitory concentration (MIC).
(§2) The strains having 10^7 C.F.U./ml were inoculated on the culture medium, and the growth of the strains was observed after incubating them at 37° C. for 18 hours, in which ciprofloxacin was used as a control antibacterial agent. In this test, twenty typical strains were used.

Enterobacter cloacae P99 = conditions: Enterobacter cloacae, P99, 18 h
Procedure: as §1, §2

Escherichia coli 078 = conditions: Escherichia coli 078; Muller-Hinton agar, 37° C., 18 hours; read-out: MIC
Procedure: as §1, §2

Escherichia coli 1507E = conditions: Muller-Hinton agar, 37° C.
Procedure: as §1, §2

Escherichia coli DC0 = conditions: Muller-Hinton agar, 37° C., 18 hours, read-out: MIC
Procedure: as §1, §2

Escherichia coli DC2 = conditions: Escherichia coli, DC2, 18 h
Procedure: as §1, §2

Escherichia coli TEM = conditions: Escherichia coli, 18 h, Muller-Hinton agar, 37° C.
Procedure: as §1, §2

[2] = test system: Klebsiella aerogenes 1522E; conditions: Klebsiella aerogenes, 1522E, 18 h
Procedure: as §1, §2

Klebsiella oxytoca 1082E = conditions: Klebsiella oxytoca 1082E; Muller-Hinton agar, 37° C., 18 hours; read-out: MIC
Procedure: as §1, §2

[3] = test system: Pseudomonas aeruginosa 1592E; conditions: Muller-Hinton agar, 37° C., 18 hours, read-out: MIC
Procedure: as §1, §2

[4] = test system: Pseudomonas aeruginosa 1771M; conditions: Pseudomonas aeruginosa, 1771M, 18 h, Muller-Hinton agar, 37° C.
Procedure: as §1, §2

[5] = test system: Pseudomonas aeruginosa 1771; conditions: Pseudomonas aeruginosa 1771; Muller-Hinton agar, 37° C., 18 hours; read-out: MIC
Procedure: as §1, §2

[6] = test system: Pseudomonas aeruginosa 9027; conditions: Muller-Hinton agar, 37° C., 18 hours, read-out: MIC
Procedure: as §1, §2

Salmonella typhimurium = conditions: Salmonella enterica; Salmonella typhimurium; Muller-Hinton agar, 37° C., 18 hours; read-out: MIC
Procedure: as §1, §2

[7] = test system: Staphylococcus aureus 285; conditions: Staphylococcus aureus, 285, 18 h
Procedure: as §1, §2

[8] = test system: Staphylococcus aureus 503
Procedure: as §1, §2

[9] = test system: Staphylococcus aureus SG511
Procedure: as §1, §2

[10] = test system: Streptococcus faecium MD8b; conditions: Enterococcus faecium, Muller-Hinton agar, 37° C., 18 hours, read-out: MIC
Procedure: as §1, §2

[11] = test system: Streptococcus pyogenes 308A; conditions: Muller-Hinton agar, 37° C., 18 hours, read-out: MIC
Procedure: as §1, §2

[12] = test system: Streptococcus pyogenes 77A; conditions: Streptococcus pyogenes 77A; Muller-Hinton agar, 37° C., 18 hours; read-out: MIC
Procedure: as §1, §2

[13] = Klebsiella aerogenes 1522E, Muller-Hinton agar, 37° C., 18 hours, read-out: MIC
[14] = Staphylococcus aureus 285, Muller-Hinton agar, 37° C., 18 hours, read-out: MIC
[15] = Staphylococcus aureus 503, Muller-Hinton agar, 37° C., 18 hours, read-out: MIC
[16] = Staphylococcus aureus SG511, Muller-Hinton agar, 37° C., 18 hours, read-out: MIC

SMILES	MIC [1] [µg/mL]	MIC (Enterobacter cloacae P99) [µg/mL]	MIC (Escherichia coli 078) [µg/mL]	MIC (Escherichia coli 1507E; 18 hours, read-out: MIC) [µg/mL]	MIC (Escherichia coli DC0) [µg/mL]	MIC (Escherichia coli DC2) [µg/mL]	MIC (Escherichia coli TEM) [µg/mL]	MIC [2, 13] [µg/mL]	MIC (Klebsiella oxytoca 1082E) [µg/mL]	MIC [3] [µg/mL]	MIC [4] [µg/mL]	MIC [5] [µg/mL]	MIC [6] [µg/mL]	MIC (Salmonella typhimurium) [µg/mL]	MIC [7, 14] [µg/mL]	MIC [8, 15] [µg/mL]	MIC [9, 16] [µg/mL]	MIC [10] [µg/mL]	MIC [11] [µg/mL]	MIC [12] [µg/mL]	also measured
NC1CCN(c2c(F)cc3c(=O)c(C(=O)C[N+](=O)[O-])cn(C4CC4)c3c2Cl)C1 (centres unmarked) [Example 11, 1-cyclopropyl-6-fluoro-8-chloro-7-(3-aminopyrrolidin-1-yl)-3-(2-nitroacetyl)-1,4-dihydro-4-oxoquinoline hydrochloride]	< 0.002	< 0.002	< 0.002	< 0.002	0.049	0.013	< 0.002	0.007	< 0.002	0.195	0.025	0.098	0.195	< 0.002	0.025	0.025	0.013	0.098	0.195	0.098	–
N[C@@H]1CCN(c2c(F)cc3c(=O)c(C(=O)C[N+](=O)[O-])cn(C4CC4)c3c2Cl)C1 [Example 12, 1-cyclopropyl-6-fluoro-8-chloro-7-(3-3R-aminopyrrolidin-1-yl)-3-(2-nitroacetyl)-1,4-dihydro-4-oxoquinoline hydrochloride]	< 0.002	0.004	< 0.002	0.004	0.098	0.049	0.004	–	< 0.002	0.391	0.049	0.195	0.391	< 0.002	–	–	–	0.098	0.391	0.195	MIC [2]: 0.025 µg/mL; MIC [7]: 0.025 µg/mL; MIC ([8]; Staphylococcus aureus, 503, 18 h): 0.025 µg/mL; MIC ([9]; Staphylococcus aureus, SG511, 18 h): 0.025 µg/mL
C[C@@H]1CN(c2c(F)c(N)c3c(=O)c(C(=O)C[N+](=O)[O-])cn(C4CC4)c3c2F)C[C@H](C)N1 [Example 14, 1-cyclopropyl-5-amino-6,8-difluoro-7-(3,5-cis-dimethylpiperazin-1-yl)-3-(2-nitroacetyl)-1,4-dihydro-4-oxoquinoline hydrochloride]	< 0.002	0.007	< 0.002	–	0.098	0.049	0.007	0.025	< 0.002	0.781	0.195	0.391	0.781	< 0.002	0.098	0.049	0.098	0.391	1.56	0.195	MIC (Escherichia coli 1507E; Escherichia coli, 1507E, 18 h): 0.013 µg/mL
CNCC1=CCN(c2c(F)cc3c(=O)c(C(=O)C[N+](=O)[O-])cn(C4CC4)c3c2F)C1 [Example 15, 1-cyclopropyl-6,8-difluoro-7-(3-methylaminomethyl-2,5-dihydropyrrol-1-yl)-3-(2-nitroacetyl)-1,4-dihydro-4-oxoquinoline hydrochloride]	< 0.002	0.004	< 0.002	–	0.098	0.013	0.004	0.013	< 0.002	0.391	0.195	0.391	0.781	< 0.002	0.004	< 0.002	< 0.002	0.025	0.049	0.025	MIC (Escherichia coli 1507E; Escherichia coli, 1507E, 18 h): 0.007 µg/mL
